Laboratory results taken from patent publication US20060134102A1, “Lymphotoxin beta receptor agents in combination with chemotherapeutic agents” (Biogen Idec MA Inc., priority 2002, published 2006).
Several values for one entry are separate records, joined by “and”; a condition that tells them apart may be missing. Identical values can stand only once.

How the values were obtained:
[1] = test system: KM-20L2 human colorectal adenocarcinoma; test: KM-20L2 xenograft model: growth of established KM-20L2 human colorectal tumors in athymic nude mice (tumor volume/weight, % T/C, Fa, Combination Index); assay type: in vivo; conditions: for Mean Fraction Affected (Fa): Camptosar 3 mg/kg alone; for Fraction affected (Fa): Camptosar 6.0 mg/kg given separately
[2] = test system: WiDr human colorectal adenocarcinoma; test: WiDr xenograft model: growth of established WiDr human colorectal tumors in athymic nude mice (tumor volume/weight, % T/C, Fa, Combination Index); conditions: for Volume Decrease: vs control; for Individual Fractional Inhibition of Tumor Volume / Individual Tumor Volumes: individual animals
Method: Therapeutic agents, i.e. LTβR agonist and chemotherapeutic agents, were administered to athymic nude mice who had been implanted with WiDr tumor cells.
WiDr cells were obtained from the American Type Culture Collection (Manassas, Va.). Cells were grown in vitro in 90% Eagle's Minimum Essential Medium with 2 mM L-glutamine and Earle's Balanced Salt Solution (BSS) adjusted to contain 1.5 g/L sodium bicarbonate, 0.1 mM non-essential amino acids, and 1 mM sodium pyruvate plus 10% fetal bovine serum (FBS) without antibiotics (5% CO2). Bacterial cultures were performed on aliquots of the tumor homogenate preparation that was implanted into the mice to ensure that all cultures were negative for bacterial contamination at both 24 and 48 hours post implant.
When the tumors measured approximately 5 mm in length by 5 mm in width, mice were randomized to treatment and control groups. Body weight measurements were recorded twice-weekly beginning on Day 0.
Tumor measurements were determined using Vernier calipers. Tumor size measurements were recorded regularly according to the study, until the termination of the study. The formula to calculate volume for a prolate ellipsoid was used to estimate tumor volume (mm^3) from 2-dimensional tumor measurements: tumor volume (mm^3)=(length×width^2 [L×W^2])÷2. Assuming unit density, volume was converted to weight (i.e., 1 mm^3=1 mg). Tumor growth inhibition was assessed as % T/C, where T is the mean tumor weight of the treatment group and C is the mean tumor weight of the control group. […] Animals were sacrificed accordingly.
Statistical analysis of the tumor weight measurements was performed according to standard statistical methods. Mean, standard deviation (SD), and standard error of the mean (SEM) were determined for body weight and tumor weight for all dose groups at all assessments.
Antitumor efficacy was determined by comparing each treatment group's tumor volume with the control group's tumor volume. Mean tumor volume decrease was calculated as the difference between the control group and the treatment group mean tumor volume. The fractional inhibition of tumor volume, i.e., the fraction affected (Fa), was calculated by dividing the treatment group mean tumor volume decrease by the control group mean tumor volume. […] Further statistical analysis was performed accordingly.

Structure (SMILES): CCc1c2c(nc3ccc(OC(=O)N4CCC(N5CCCCC5)CC4)cc13)-c1cc3c(c(=O)n1C2)COC(=O)[C@]3(O)CC [Camptosar, irinotecan, reference compound]
- Activity by NCI criteria (% T/C at or below 42) ([1]; Camptosar): active
- Mean Fraction Affected (Fa) ([1]; Day 9): 0.098
- Mean Fraction Affected (Fa) ([1]; Day 13): 0.327
- Mean Fraction Affected (Fa) ([1]; Day 20): 0.593
- Mean Fraction Affected (Fa) ([1]; Day 23): 0.521
- Mean Fraction Affected (Fa) ([1]; Day 30): 0.406
- Inhibition of tumor growth vs saline control ([1]; Camptosar 6 mg/kg days 13 through 51, 3 mg/kg days 13 through 48, […] days 9 through 44, separate study): statistically significant inhibition of tumor growth
- Fraction affected (Fa) ([1]; Day 16): 0.594
- Fraction affected (Fa) ([1]; Day 20): 0.781
- Fraction affected (Fa) ([1]; Day 23): 0.759
- Fraction affected (Fa) ([1]; Day 27): 0.701
- Fraction affected (Fa) ([1]; Day 30): 0.607
- Fraction affected (Fa) ([1]; Day 34): 0.564
- Fraction affected (Fa) ([1]; Day 37): 0.495
- Tumor inhibition ([1]; Camptosar groups, end of day 55, separate study): no significant tumor inhibition
- Median Effect Dose ([1]; Combined (1:0.63 huCBE11:Camptosar), dose of the labelled agent in the combination, Day 13): 6.7 mg/kg
- Median Effect Dose ([1]; Combined (1:0.63 huCBE11:Camptosar), dose of the labelled agent in the combination, Day 16): 1.6 mg/kg
- Median Effect Dose ([1]; Combined (1:0.63 huCBE11:Camptosar), dose of the labelled agent in the combination, Day 20): 0.6 mg/kg
- Median Effect Dose ([1]; Combined (1:0.63 huCBE11:Camptosar), dose of the labelled agent in the combination, Day 23): 0.7 mg/kg
- Median Effect Dose ([1]; Combined (1:0.63 huCBE11:Camptosar), dose of the labelled agent in the combination, Day 27): 1.0 mg/kg
- Median Effect Dose ([1]; Combined (1:0.63 huCBE11:Camptosar), dose of the labelled agent in the combination, Day 30): 1.1 mg/kg
- Median Effect Dose ([1]; Combined (1:0.63 huCBE11:Camptosar), dose of the labelled agent in the combination, Day 34): 1.1 mg/kg
- Median Effect Dose ([1]; Combined (1:0.63 huCBE11:Camptosar), dose of the labelled agent in the combination, Day 37): 1.0 mg/kg
- Median Effect Dose ([1]; Combined (1:0.63 huCBE11:Camptosar), dose of the labelled agent in the combination, Day 41): 1.0 mg/kg
- Median Effect Dose ([1]; Given Separately, Day 13): 12.4 mg/kg
- Median Effect Dose ([1]; Given Separately, Day 16): 4.0 mg/kg
- Median Effect Dose ([1]; Given Separately, Day 20): 2.3 mg/kg
- Median Effect Dose ([1]; Given Separately, Day 23): 2.7 mg/kg
- Median Effect Dose ([1]; Given Separately, Day 27): 3.2 mg/kg
- Median Effect Dose ([1]; Given Separately, Day 30): 4.2 mg/kg
- Median Effect Dose ([1]; Given Separately, Day 34): 4.7 mg/kg
- Median Effect Dose ([1]; Given Separately, Day 37): 6.0 mg/kg
- Median Effect Dose ([1]; Given Separately, Day 41): 7.3 mg/kg
- Fa (Fraction Affected), group mean ([2]; Camptosar 3 mg/kg, day 21): 0.238
- Fa, individual animals ([2]; Camptosar 3 mg/kg, day 21): 0.336 and 0.314 and 0.078 and 0.269 and 0.245 and −0.068 and 0.513 and 0.208 and 0.093
- Fa (Fraction Affected), group mean ([2]; Camptosar 6 mg/kg, day 21): 0.441
- Fa, individual animals ([2]; Camptosar 6 mg/kg, day 21): 0.302 and 0.473 and 0.521 and 0.544 (2×) and 0.590 and 0.110 and 0.614 and 0.277
- Fa (Fraction Affected), group mean ([2]; Camptosar 10 mg/kg, day 21): 0.476
- Fa, individual animals ([2]; Camptosar 10 mg/kg, day 21): 0.464 and 0.347 and 0.575 and 0.375 and 0.573 and 0.163 and 0.516 and 0.684 and 0.648
- Activity by NCI criteria (% T/C of 42 or less) ([2]; Camptosar […] to 10 mg/kg): inactive
- Median Effect Dose ([2]; Camptosar combined with huCBE11 (0.555:1), day 21): 5.7 mg/kg
- Median Effect Dose ([2]; Camptosar given separately, day 21): 9.8 mg/kg

Structure (SMILES): COc1cccc2c1C(=O)c1c(O)c3c(c(O)c1C2=O)C[C@@](O)(C(=O)CO)C[C@@H]3O[C@H]1C[C@H](N)[C@H](O)[C@H](C)O1 [Adriamycin, adriamycin, reference compound]
- Fa (fractional inhibition of tumor volume), group mean ([2]; Adriamycin 4 mg/kg, day 35): −0.204
- Fa, individual animals ([2]; Adriamycin 4 mg/kg, day 35): 0.033 and −0.408 and −1.391 and 0.530 and −0.660 and −0.137 and −0.379 and −0.389 and 0.251 and 0.512
- Tumor Volume, group mean ([2]; Adriamycin 4 mg/kg, day 35): 1353.0
- Tumor volume, individual animals ([2]; Adriamycin 4 mg/kg, day 35): 1582.5 and 2687.5 and 528.1 and 1865.5 and 1277.8 and 1550.2 and 1560.9 and 842.1 and 548.3
- Volume Decrease vs control, group mean ([2]; Adriamycin 4 mg/kg, day 35): −229.0
- Fa (fractional inhibition of tumor volume), group mean ([2]; Adriamycin 6 mg/kg, day 35): 0.089
- Fa, individual animals ([2]; Adriamycin 6 mg/kg, day 35): −0.295 and 0.095 and 0.380 and 0.462 and 0.198 and 0.209 and 0.057 and −0.060 and 0.522 and −0.674
- Tumor Volume, group mean ([2]; Adriamycin 6 mg/kg, day 35): 1023.5
- Tumor volume, individual animals ([2]; Adriamycin 6 mg/kg, day 35): 1455.4 and 696.6 and 605.1 and 901.8 and 889.3 and 1191.2 and 537.2 and 1881.7
- Volume Decrease vs control, group mean ([2]; Adriamycin 6 mg/kg, day 35): 100.5
- Activity by NCI criteria (% T/C at or below 42) ([2]; adriamycin 1 mg/kg to 6 mg/kg intraperitoneal, all tested doses): inactive
- Inhibition of tumor growth ([2]; adriamycin 6 mg/kg or 4 mg/kg, day 35, separate study): did not produce a significant inhibition
- Tumor growth vs vehicle control ([2]; adriamycin groups, day 42 (end of study)): no significant difference

Structure (SMILES): CC(=O)O[C@H]1C(=O)[C@@]2(C)[C@H]([C@H](OC(=O)c3ccccc3)[C@]3(O)C[C@H](OC(=O)[C@H](O)[C@@H](NC(=O)c4ccccc4)c4ccccc4)C(C)=C1C3(C)C)[C@]1(OC(C)=O)CO[C@@H]1C[C@@H]2O [Taxol, reference compound]
- Fa (Fraction Affected) ([2]; Day 34, Taxol 12.5 mg/kg): 0.171
- Tumor Volume ([2]; Day 34, Taxol 12.5 mg/kg): 1141.1
- Fa (Fraction Affected) ([2]; Day 34, Taxol 18.75 mg/kg): 0.588
- Tumor Volume ([2]; Day 34, Taxol 18.75 mg/kg): 567.5
- Volume Decrease ([2]; Day 34, Taxol 18.75 mg/kg): 808.9
- Fa (Fraction Affected) ([2]; Day 34, Taxol 25 mg/kg): 0.812
- Tumor Volume ([2]; Day 34, Taxol 25 mg/kg): 259.1
- Volume Decrease ([2]; Day 34, Taxol 25 mg/kg): 1117.3
- Median Effect Dose ([2]; Day 34, Taxol Given Separately): 12.6 mg/kg
- Median Effect Dose ([2]; Day 34, Taxol dose, Combined (0.333:1) with huCBE11): 6.6 mg/kg
- Individual Fractional Inhibition of Tumor Volume ([2]; Day 34, Taxol 6.25): 0.231 and −0.036 and 0.421 and 0.375 and 0.469 and 0.157 and 0.552 and 0.284 and −0.217 and 0.168
- Individual Tumor Volumes ([2]; Day 34, Taxol 6.25): 1058.1 and 1425.5 and 796.7 and 860.4 and 730.5 and 1159.9 and 616.0 and 985.1 and 1675.4 and 1144.5
- Individual Fractional Inhibition of Tumor Volume ([2]; Day 34, Taxol 12.5): 0.854 and 0.191 and 0.140 and 0.037 and −0.278 and 0.170 and 0.192 and −0.130 and 0.198 and 0.336
- Individual Tumor Volumes ([2]; Day 34, Taxol 12.5): 201.1 and 1113.1 and 1183.1 and 1325.2 and 1759.5 and 1143.0 and 1112.7 and 1554.9 and 1104.0 and 914.1
- Tumor growth vs vehicle control ([2]; Taxol 12.5 mg/kg, […] and 3.13 mg/kg): did not differ significantly
- % T/C ([2]; Taxol 18.75 mg/kg, Days 21 to 34): below 42%
- % T/C ([2]; Taxol 25 mg/kg, Days 13 to 39): below 42%
- % T/C ([2]; Taxol 25 mg/kg, Days 21 to 50): below 42%
- % T/C ([2]; Taxol 12.5, 6.25 and 3.13 mg/kg, throughout the study): > 82%

Structure (SMILES): N.N.[Cl][Pt][Cl] [Cisplatin, cisplatin, reference compound]
- Fa (fractional inhibition of tumor volume), group mean ([2]; Cisplatin 1 mg/kg, day 44): 0.083
- Fa, individual animals ([2]; Cisplatin 1 mg/kg, day 44): −0.478 and 0.344 and 0.025 and −0.016 and 0.140 and 0.102 and 0.222 and 0.128 and 0.098 and 0.268
- Tumor Volume, group mean ([2]; Cisplatin 1 mg/kg, day 44): 1300.4
- Tumor volume, individual animals ([2]; Cisplatin 1 mg/kg, day 44): 2096.4 and 930.1 and 1383.3 and 1440.7 and 1220.3 and 1274.3 and 1103.9 and 1236.7 and 1280.0 and 1038.3
- Volume Decrease vs control, group mean ([2]; Cisplatin 1 mg/kg, day 44): 118.2
- Fa (fractional inhibition of tumor volume), group mean ([2]; Cisplatin 2 mg/kg, day 44): 0.055
- Fa, individual animals ([2]; Cisplatin 2 mg/kg, day 44): 0.082 and −0.061 and −0.036 and 0.618 and −0.290 and −0.523 and 0.241 and 0.054 and 0.316 and 0.151
- Tumor Volume, group mean ([2]; Cisplatin 2 mg/kg, day 44): 1340.1
- Tumor volume, individual animals ([2]; Cisplatin 2 mg/kg, day 44): 1301.9 and 1505.3 and 1469.5 and 541.4 and 1829.8 and 2160.2 and 1076.4 and 1342.0 and 970.2 and 1204.2
- Volume Decrease vs control, group mean ([2]; Cisplatin 2 mg/kg, day 44): 78.5
- Activity by NCI criteria (% T/C of 42 or less) ([2]; cisplatin 2 mg/kg to 0.25 mg/kg): inactive
- Tumor growth vs saline control ([2]; cisplatin 2 mg/kg, 1 mg/kg and 0.25 mg/kg, day 50): did not differ significantly
